Counter-ions that a name gives are not always drawn.
How the values were obtained:
[1] = target: T1, arginase II (ARG II) (Homo sapiens, UniProt P78540); test: Inhibition of arginase II, spectrophotometric urea assay at 530 nm; assay type: biochemical; settings: Formula I compounds, Table 2; read-out: Potency (ARG II)
T1 sequence (P78540 23-354): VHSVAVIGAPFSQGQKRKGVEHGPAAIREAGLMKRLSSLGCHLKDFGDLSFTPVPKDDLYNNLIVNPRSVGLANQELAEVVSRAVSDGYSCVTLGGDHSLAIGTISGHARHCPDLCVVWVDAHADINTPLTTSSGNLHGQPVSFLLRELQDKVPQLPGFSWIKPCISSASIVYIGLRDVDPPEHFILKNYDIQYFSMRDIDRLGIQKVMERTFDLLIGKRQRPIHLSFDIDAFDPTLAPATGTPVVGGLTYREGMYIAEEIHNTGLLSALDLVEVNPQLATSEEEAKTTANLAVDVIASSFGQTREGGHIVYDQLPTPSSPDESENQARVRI
How it was run: (§1)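 IC50 was derived by regression of OD530 normalized to uninhibited-enzyme controls against log concentration. Urea from 60-min, 37 °C turnover of L-arginine with manganese sulfate was detected after acid o-phthaldialdehyde/primaquine quench and 10 min colour development. Arginase I and II came from 100 ng/ml stocks in pH 7.4 phosphate with ovalbumin.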

[2] = target: T2, human arginase I (ARG I) (Homo sapiens, UniProt P05089); test: Inhibition of arginase I, spectrophotometric urea assay at 530 nm; assay type: biochemical; settings: Formula I compounds, Table 2; read-out: Potency (ARG I)
T2 sequence (P05089 1-322): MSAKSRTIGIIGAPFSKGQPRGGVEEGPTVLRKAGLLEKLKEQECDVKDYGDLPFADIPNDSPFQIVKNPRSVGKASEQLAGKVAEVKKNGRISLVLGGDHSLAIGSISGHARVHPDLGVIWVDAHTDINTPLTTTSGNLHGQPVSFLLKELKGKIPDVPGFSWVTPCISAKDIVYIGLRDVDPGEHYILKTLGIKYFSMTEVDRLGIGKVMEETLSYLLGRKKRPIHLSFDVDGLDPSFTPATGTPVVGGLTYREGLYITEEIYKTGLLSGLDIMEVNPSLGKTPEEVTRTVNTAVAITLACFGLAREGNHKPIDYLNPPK
How it was run: as §1

Row | SMILES | IC50 [1] | IC50 [2]
1 | CN(CCC(N)(CCCCB(O)O)C(=O)O)CC(O)c1ccccc1 (centres unmarked) [compound 78, 2-amino-6-borono-2-(2-((2-hydroxy-2-phenylethyl)(methyl)amino)ethyl)hexanoic acid dihydrochloride] | 2000 to 5000 nM | 2000 to 5000 nM
2 | NC(CCCCB(O)O)(CN1CCCCC1)C(=O)O (centres unmarked) [compound 79, 2-amino-6-borono-2-(piperidin-1-ylmethyl)hexanoic acid] | > 5000 nM | 2000 to 5000 nM
3 | CN1CCN(CC(N)(CCCCB(O)O)C(=O)O)CC1 (centres unmarked) [compound 80, 2-amino-6-borono-2-((4-methylpiperazin-1-yl)methyl) hexanoic acid trihydrochloride] | > 5000 nM | 2000 to 5000 nM
4 | CCCNCC(N)(CCCCB(O)O)C(=O)O (centres unmarked) [compound 83, 2-amino-6-borono-2-((propylamino)methyl)hexanoic acid dihydrochloride] | 2000 to 5000 nM | 2000 to 5000 nM
5 | NC(CCCCB(O)O)(CNCc1ccccc1)C(=O)O (centres unmarked) [compound 84, 2-amino-2-((benzylamino)methyl)-6-boronohexanoic acid] | > 5000 nM | 2000 to 5000 nM
6 | C[C@@H](O)CNCC(N)(CCCCB(O)O)C(=O)O (stereo partly drawn) [compound 85, 2-amino-6-borono-2-(((R)-2-hydroxypropylamino)methyl)hexanoic acid dihydrochloride] | 2000 to 5000 nM | 2000 to 5000 nM
7 | CCCCNCC(N)(CCCCB(O)O)C(=O)O (centres unmarked) [compound 86, 2-amino-6-borono-2-((butylamino)methyl)hexanoic acid dihydrochloride] | 2000 to 5000 nM | 2000 to 5000 nM
8 | NC(CCCCB(O)O)(CNC1CCOCC1)C(=O)O (centres unmarked) [compound 87, 2-amino-6-borono-2-((tetrahydro-2H-pyran-4-ylamino)methyl)hexanoic acid dihydrochloride] | 1000 to 2000 nM | 1000 to 2000 nM
9 | CC(C)CC(CO)NCC(N)(CCCCB(O)O)C(=O)O [compound 88, 2-amino-6-borono-2-(((S)-1-hydroxy-4-methylpentan-2-ylamino)methyl)hexanoic acid dihydrochloride] | 1000 to 2000 nM | 2000 to 5000 nM
10 | C[C@H](NCC(N)(CCCCB(O)O)C(=O)O)c1ccccc1 (stereo partly drawn) [compound 90, 2-amino-6-borono-2-(((S)-1-phenylethylamino)methyl)hexanoic acid dihydrochloride] | 2000 to 5000 nM | 2000 to 5000 nM
11 | C[C@H](CO)NCCC(N)(CCCCB(O)O)C(=O)O (some centres unmarked) [compound 91] | 2000 to 5000 nM | 2000 to 5000 nM
12 | NC(CCCCB(O)O)(CCOc1ccc(Cl)cc1)C(=O)O (centres unmarked) [compound 92, 2-amino-6-borono-2-(2-(4-chlorophenoxy)ethyl)hexanoic acid hydrochloride] | > 5000 nM | > 5000 nM
13 | COc1ccc(OCCC(N)(CCCCB(O)O)C(=O)O)cc1 (centres unmarked) [compound 93, 2-amino-6-borono-2-(2-(4-methoxyphenoxy)ethyl)hexanoic acid hydrochloride] | > 5000 nM | > 5000 nM
14 | NC(CCCCB(O)O)(CCOc1ccc(Cl)cc1Cl)C(=O)O (centres unmarked) [compound 94, 2-Amino-6-borono-2-[2-(2,4-dichlorophenoxy)-ethyl]-hexanoic acid hydrochloride] | > 5000 nM | > 5000 nM
15 | NC(CCCCB(O)O)(CCOc1cccc(C(F)(F)F)c1)C(=O)O (centres unmarked) [compound 95, 2-Amino-6-borono-2-[2-(3-trifluoromethylphenoxy)-ethyl]-hexanoic acid hydrochloride] | 2000 to 5000 nM | 2000 to 5000 nM
16 | NC(CCCCB(O)O)(CCCOc1ccc(Cl)cc1)C(=O)O (centres unmarked) [compound 96, 2-Amino-6-borono-2-[3-(4-chlorophenoxy)-propyl]-hexanoic acid hydrochloride] | 1000 to 2000 nM | 1000 to 2000 nM
17 | CC(N)(CCCCB(O)O)C(=O)O (centres unmarked) [compound 97, 2-Amino-6-borono-2-methylhexanoic acid hydrochloride] | > 5000 nM | 2000 to 5000 nM
18 | NC(CCCCB(O)O)(Cc1cnc[nH]1)C(=O)O (centres unmarked) [compound 102, 2-((1H-imidazol-5-yl)methyl)-2-amino-6-boronohexanoic acid dihydrochloride] | 2000 to 5000 nM | 2000 to 5000 nM
19 | NC(CCCCB(O)O)(CC(=O)O)C(=O)O (centres unmarked) [compound 106, 2-amino-2-(4-boronobutyl)succinic acid hydrochloride] | > 5000 nM | > 5000 nM

Row | SMILES | IC50 [1] | IC50 [2]
20 | CC(C)n1cncc1CC(N)(CCCCB(O)O)C(=O)O (centres unmarked) [compound 107, 2-amino-6-borono-2-((1-isopropyl-1H-imidazol-5-yl)methyl)hexanoic acid dihydrochloride] | > 5000 nM | > 5000 nM
21 | CCC(O)C(N)(CCCCB(O)O)C(=O)O (centres unmarked) [compound 108, 2-amino-6-borono-2-(1-hydroxypropyl)hexanoic acid hydrochloride] | 2000 to 5000 nM | 1000 to 2000 nM
22 | NC(CCCCB(O)O)(C(=O)O)C(O)C1CCNCC1 (centres unmarked) [compound 109, 2-amino-6-borono-2-(hydroxy(piperidin-4-yl)methyl)hexanoic acid dihydrochloride] | > 5000 nM | 2000 to 5000 nM
23 | NC(CCCCB(O)O)(C(=O)O)C(O)C1CCCNC1 (centres unmarked) [compound 110, 2-amino-6-borono-2-(hydroxy(piperidin-3-yl)methyl)hexanoic acid dihydrochloride] | 2000 to 5000 nM | 1000 to 2000 nM
24 | NC(CCCCB(O)O)(C(=O)O)C(O)CCC(F)(F)F (centres unmarked) [compound 111, 2-amino-2-(4-boronobutyl)-6,6,6-trifluoro-3-hydroxyhexanoic acid hydrochloride] | 2000 to 5000 nM | 2000 to 5000 nM
25 | NC(CCCCB(O)O)(C(=O)O)C(O)c1cccnc1 (centres unmarked) [compound 112, 2-amino-6-borono-2-(hydroxy(pyridin-3-yl)methyl)hexanoic acid dihydrochloride] | 2000 to 5000 nM | 2000 to 5000 nM
26 | NC(CCCCB(O)O)(C(=O)O)C(O)C1CNC1 (centres unmarked) [compound 113, 2-amino-2-(azetidin-3-yl(hydroxy)methyl)-6-boronohexanoic acid dihydrochloride] | 251 to 1000 nM | 0.1 to 250 nM
27 | NC(CCCCB(O)O)C(=O)c1ccccc1 (centres unmarked) [compound 114, 5-amino-6-oxo-6-phenylhexylboronic acid hydrochloride] | > 5000 nM | > 5000 nM
28 | NC(CCCCB(O)O)(CCc1ccccn1)C(=O)O (centres unmarked) [compound 116, 2-amino-6-borono-2-(2-(pyridin-2-yl)ethyl)hexanoic acid dihydrochloride] | 2000 to 5000 nM | 2000 to 5000 nM
29 | NC(CCCCB(O)O)(CC1CN(Cc2ccc(Cl)c(Cl)c2)C1)C(=O)O (centres unmarked) [compound 117, 2-amino-6-borono-2-((1-(3,4-dichlorobenzyl)azetidin-3-yl)methyl)hexanoic acid dihydrochloride] | 2000 to 5000 nM | 251 to 1000 nM
30 | NC(CCCCB(O)O)(CC1CN(CCc2ccc(Cl)cc2Cl)C1)C(=O)O (centres unmarked) [compound 118, 2-amino-6-borono-2-((1-(2,4-dichlorophenethyl)azetidin-3-yl)methyl)hexanoic acid dihydrochloride] | 251 to 1000 nM | 251 to 1000 nM
31 | NC(CCCCB(O)O)(CCNC(=S)Nc1ccc(Cl)c(Cl)c1)C(=O)O (centres unmarked) [compound 119, 2-amino-6-borono-2-(2-(3-(3,4-dichlorophenyl)thioureido)ethyl)hexanoic acid hydrochloride] | 1000 to 2000 nM | 251 to 1000 nM
32 | CC(C)C(=O)NCCC(N)(CCCCB(O)O)C(=O)O (centres unmarked) [compound 120, 2-amino-6-borono-2-(2-isobutyramidoethyl)hexanoic acid hydrochloride] | 2000 to 5000 nM | 1000 to 2000 nM
33 | NC(CCCCB(O)O)(CCN1CCC(c2ccc(Cl)cc2)CC1)C(=O)O (centres unmarked) [compound 121, 2-amino-6-borono-2-(2-(4-(4-chlorophenyl)piperidin-1-yl)ethyl)hexanoic acid dihydrochloride] | 251 to 1000 nM | 251 to 1000 nM
34 | NC(CCCCB(O)O)(CCN1CCC(Cc2ccc(Cl)cc2)CC1)C(=O)O (centres unmarked) [compound 122, 2-amino-6-borono-2-(2-(4-(4-chlorobenzyl)piperidin-1-yl)ethyl)hexanoic acid dihydrochloride] | 251 to 1000 nM | 251 to 1000 nM
35 | NC(CCCCB(O)O)(CC1CNC1)C(=O)O (centres unmarked) [compound 123, 2-amino-2-(azetidin-3-ylmethyl)-6-boronohexanoic acid dihydrochloride] | > 5000 nM | 2000 to 5000 nM
36 | CC(CC(N)(CCCCB(O)O)C(=O)O)N1CCC(Cc2ccccc2)CC1 (centres unmarked) [compound 124, 2-amino-2-(2-(4-benzylpiperidin-1-yl)propyl)-6-boronohexanoic acid dihydrochloride] | 2000 to 5000 nM | 251 to 1000 nM
37 | NC(CCCCB(O)O)(CCN1CCC(Cc2ccccc2)CC1)C(=O)O (centres unmarked) [compound 125, 2-amino-2-(2-(4-benzylpiperidin-1-yl)ethyl)-6-boronohexanoic acid dihydrochloride] | 251 to 1000 nM | 251 to 1000 nM

Source: patent publication US9994594B2, “Inhibitors of arginase and their therapeutic applications” (MARS, INCORPORATED, priority 2010, dated 2018)
